The target of data set [1] is T1, NaV1.7 (Homo sapiens, UniProt Q15858).
T1 construct: expressed in transfected cells; host or cells: tetracycline-inducible cell line kept under hygromycin and blasticidin
The experiment in a line: Whole cell patch clamp, external block of Nav1.7 current. The data set is classed as cell-based. The note with it: test concentration of 30 μM; compound in external solution for 5 minutes; 5 Hz stimulation; read-out: Nav1.7 extracellular inhibition. On the procedure:
NaV1.7 was expressed upon induction with tetracycline. Cells were cultured in DMEM containing 10% dialyzed Fetal Bovine Serum (VWR, Radnor, Pa.), 1% Glutamax (VWR, Radnor, Pa.), 1% Penicillin-Streptomycin (VWR, Radnor, Pa.), 100 mg/L Hygromycin (Thermo Fisher Scientific, Waltham, Mass. and 5 mg/L Blasticidin (Alfa Aesar, Haverhill, Mass.). Cells were grown and maintained at 37° C. in a humidified environment containing 10% CO2 in air. Cells were detached from the culture flask for passage and harvested using 0.05% Trypsin-EDTA (Thermo Fisher Scientific, Waltham, Mass.). To induce NaV1.7, cells were induced with tetracycline (0.1-1 μg/mL, IBI Scientific, Peosta, Iowa) the day before recording and plated onto 24-well plates. […] For one 24-well plate, 2 mL of cell suspension was mixed with 23 mL of fresh growth media and 0.1-1 μg/mL tetracycline added. 1 ml of mixed media with cells was then added to each well of a 24-well plate, with a 12 mm coverslip already placed in the bottom of the well. Cells were then incubated in 37° C. and 10% CO2 overnight. The intracellular solution contained the following (in mM) CsCl 135, NaCl 10, EGTA 10, HEPES 10, MgCl2 2, adjusted to pH 7.2 with CsOH. The external solution was a normal Ringer solution containing (in mM) NaCl 155, HEPES 10, glucose 10, KCl 3.5, CaCl2 1.5, MgCl2 1 adjusted to pH 7.4 with NaOH. CsCl is from Alfa Aesar, Haverhill, Mass. All other chemicals are from Sigma-Aldrich, St. Louis, Mo. In order to test the degree of internal block by test compounds the compounds were dissolved in internal solution at the indicated test concentration. […] In order to test the degree of external block by test compounds the compounds were dissolved in external solution at the indicated test concentration. 18-24 hours after cells were induced with tetracycline, coverslips were placed into a chamber filled with Normal Ringer solution at room temperature and the chamber placed on a microscope. Pipettes were pulled from borosilicate glass on a P97 puller (Sutter Instrument, Novato, Calif.) and polished with a MF-830 Microforge (Narishige International USA, Inc, Amityville, N.Y.) to have a resistance of 1.5-2.5 MΩ when filled with CsCl internal solution at room temperature. Healthy cells (those that are round and translucent with no visible blemishes) were chosen for seal formation. A seal was formed between the pipette and the cell, and a brief pulse of suction was used to “break in” and establish the whole-cell configuration. The membrane potential was held at −100 mV before the voltage protocol began. Only cells with series resistance between 1.5-5 MΩ were retained for analysis. The voltage protocol was as follows: Cells were held at −100 mV for 12 ms followed by a hyperpolarizing step to −105 mV for 12 ms to monitor the leak. Cells were then stepped back to −100 mV for 40 ms. Cells were then depolarized to −20 mV for 10 ms and then returned to −100 mV for 26 ms (The FIGURE). Once the recording was started, the voltage protocol was run at 30 second intervals for 5 minutes to get a stable baseline. This is followed by 5 Hz stimulation of the same voltage protocol run until the end of experiment. […] Currents were recorded using PatchMaster software with Heka EPC10 (HEKA Electronics, Lambrecht, Germany). […] The data was plotted using the Patchmaster software (HEKA Electronics, Lambrecht, Germany) and analyzed by plotting the minimum current during the voltage step to −20 mV (peak inward current) as a function of time. […]
(In general: In patch-clamp work, channel activity is measured electrically.)

Data set [2] deals with T1, NaV1.7. The experiment in a line: Whole cell patch clamp, internal block of Nav1.7 current. The data set is classed as cell-based. As to conditions: test concentration of 10 μM; compound dissolved in internal solution; 5 Hz stimulation; read-out: Nav1.7 intracellular inhibition. The procedure: NaV1.7 was expressed upon induction with tetracycline. Cells were cultured in DMEM containing 10% dialyzed Fetal Bovine Serum (VWR, Radnor, Pa.), 1% Glutamax (VWR, Radnor, Pa.), 1% Penicillin-Streptomycin (VWR, Radnor, Pa.), 100 mg/L Hygromycin (Thermo Fisher Scientific, Waltham, Mass. and 5 mg/L Blasticidin (Alfa Aesar, Haverhill, Mass.). Cells were grown and maintained at 37° C. in a humidified environment containing 10% CO2 in air. Cells were detached from the culture flask for passage and harvested using 0.05% Trypsin-EDTA (Thermo Fisher Scientific, Waltham, Mass.). To induce NaV1.7, cells were induced with tetracycline (0.1-1 μg/mL, IBI Scientific, Peosta, Iowa) the day before recording and plated onto 24-well plates. […] For one 24-well plate, 2 mL of cell suspension was mixed with 23 mL of fresh growth media and 0.1-1 μg/mL tetracycline added. 1 ml of mixed media with cells was then added to each well of a 24-well plate, with a 12 mm coverslip already placed in the bottom of the well. Cells were then incubated in 37° C. and 10% CO2 overnight. The intracellular solution contained the following (in mM) CsCl 135, NaCl 10, EGTA 10, HEPES 10, MgCl2 2, adjusted to pH 7.2 with CsOH. The external solution was a normal Ringer solution containing (in mM) NaCl 155, HEPES 10, glucose 10, KCl 3.5, CaCl2 1.5, MgCl2 1 adjusted to pH 7.4 with NaOH. CsCl is from Alfa Aesar, Haverhill, Mass. All other chemicals are from Sigma-Aldrich, St. Louis, Mo. In order to test the degree of internal block by test compounds the compounds were dissolved in internal solution at the indicated test concentration. […] In order to test the degree of external block by test compounds the compounds were dissolved in external solution at the indicated test concentration. 18-24 hours after cells were induced with tetracycline, coverslips were placed into a chamber filled with Normal Ringer solution at room temperature and the chamber placed on a microscope. Pipettes were pulled from borosilicate glass on a P97 puller (Sutter Instrument, Novato, Calif.) and polished with a MF-830 Microforge (Narishige International USA, Inc, Amityville, N.Y.) to have a resistance of 1.5-2.5 MΩ when filled with CsCl internal solution at room temperature. Healthy cells (those that are round and translucent with no visible blemishes) were chosen for seal formation. A seal was formed between the pipette and the cell, and a brief pulse of suction was used to “break in” and establish the whole-cell configuration. The membrane potential was held at −100 mV before the voltage protocol began. Only cells with series resistance between 1.5-5 MΩ were retained for analysis. The voltage protocol was as follows: Cells were held at −100 mV for 12 ms followed by a hyperpolarizing step to −105 mV for 12 ms to monitor the leak. Cells were then stepped back to −100 mV for 40 ms. Cells were then depolarized to −20 mV for 10 ms and then returned to −100 mV for 26 ms (The FIGURE). Once the recording was started, the voltage protocol was run at 30 second intervals for 5 minutes to get a stable baseline. […] Currents were recorded using PatchMaster software with Heka EPC10 (HEKA Electronics, Lambrecht, Germany). […] The data was plotted using the Patchmaster software (HEKA Electronics, Lambrecht, Germany) and analyzed by plotting the minimum current during the voltage step to −20 mV (peak inward current) as a function of time. […]

A short description of data set [3]: PAMPA membrane permeability assay. The data set is classed as in vitro ADME. The note with it: GIT lipid, buffer pH 7.4, incubated 4 hours. On the procedure: The PAMPA assay (pION, Inc., Woburn Mass.) was used to determine the ability of compounds of the invention to cross an artificial lipid membrane by passive diffusion. Test compounds were dissolved in DMSO (10 mM) and diluted 200-fold in buffer (pION Inc., pH 7.4) to provide 50 uM stock solutions. Buffer (150 μL) was added to a UV blank plate and stock solutions (150 μL) were transferred to a UV reference plate. The blank and reference spectrum were read using a spectrophotometer. Stock solutions (200 μL) were added to the donor plate of the PAMPA sandwich plate and an accept plate painted with GIT lipid (pION Inc, 5 μL) was placed on top. Buffer (200 μL) was added to the acceptor plate and the PAMPA sandwich plate was incubated for 4 hours. Aliquots (150 μL) from the acceptor plate were added to a UV plate and read as acceptor spectrum. Aliquots (150 μL) of the donor solutions were added to a UV analysis plate and read as donor spectrum. The permeability coefficient of test compounds was calculated using PAMPA Explorer™ software (version 3.5.0.4) based on the AUC of the reference plate, the donor plate, and the acceptor plate.
For orientation: In PAMPA a lipid-coated filter parts donor from acceptor wells.

SMILES strings stand for the structures. Where a name gives a salt, the structure may show the parent alone.

T1 sequence (Q15858 whole entry): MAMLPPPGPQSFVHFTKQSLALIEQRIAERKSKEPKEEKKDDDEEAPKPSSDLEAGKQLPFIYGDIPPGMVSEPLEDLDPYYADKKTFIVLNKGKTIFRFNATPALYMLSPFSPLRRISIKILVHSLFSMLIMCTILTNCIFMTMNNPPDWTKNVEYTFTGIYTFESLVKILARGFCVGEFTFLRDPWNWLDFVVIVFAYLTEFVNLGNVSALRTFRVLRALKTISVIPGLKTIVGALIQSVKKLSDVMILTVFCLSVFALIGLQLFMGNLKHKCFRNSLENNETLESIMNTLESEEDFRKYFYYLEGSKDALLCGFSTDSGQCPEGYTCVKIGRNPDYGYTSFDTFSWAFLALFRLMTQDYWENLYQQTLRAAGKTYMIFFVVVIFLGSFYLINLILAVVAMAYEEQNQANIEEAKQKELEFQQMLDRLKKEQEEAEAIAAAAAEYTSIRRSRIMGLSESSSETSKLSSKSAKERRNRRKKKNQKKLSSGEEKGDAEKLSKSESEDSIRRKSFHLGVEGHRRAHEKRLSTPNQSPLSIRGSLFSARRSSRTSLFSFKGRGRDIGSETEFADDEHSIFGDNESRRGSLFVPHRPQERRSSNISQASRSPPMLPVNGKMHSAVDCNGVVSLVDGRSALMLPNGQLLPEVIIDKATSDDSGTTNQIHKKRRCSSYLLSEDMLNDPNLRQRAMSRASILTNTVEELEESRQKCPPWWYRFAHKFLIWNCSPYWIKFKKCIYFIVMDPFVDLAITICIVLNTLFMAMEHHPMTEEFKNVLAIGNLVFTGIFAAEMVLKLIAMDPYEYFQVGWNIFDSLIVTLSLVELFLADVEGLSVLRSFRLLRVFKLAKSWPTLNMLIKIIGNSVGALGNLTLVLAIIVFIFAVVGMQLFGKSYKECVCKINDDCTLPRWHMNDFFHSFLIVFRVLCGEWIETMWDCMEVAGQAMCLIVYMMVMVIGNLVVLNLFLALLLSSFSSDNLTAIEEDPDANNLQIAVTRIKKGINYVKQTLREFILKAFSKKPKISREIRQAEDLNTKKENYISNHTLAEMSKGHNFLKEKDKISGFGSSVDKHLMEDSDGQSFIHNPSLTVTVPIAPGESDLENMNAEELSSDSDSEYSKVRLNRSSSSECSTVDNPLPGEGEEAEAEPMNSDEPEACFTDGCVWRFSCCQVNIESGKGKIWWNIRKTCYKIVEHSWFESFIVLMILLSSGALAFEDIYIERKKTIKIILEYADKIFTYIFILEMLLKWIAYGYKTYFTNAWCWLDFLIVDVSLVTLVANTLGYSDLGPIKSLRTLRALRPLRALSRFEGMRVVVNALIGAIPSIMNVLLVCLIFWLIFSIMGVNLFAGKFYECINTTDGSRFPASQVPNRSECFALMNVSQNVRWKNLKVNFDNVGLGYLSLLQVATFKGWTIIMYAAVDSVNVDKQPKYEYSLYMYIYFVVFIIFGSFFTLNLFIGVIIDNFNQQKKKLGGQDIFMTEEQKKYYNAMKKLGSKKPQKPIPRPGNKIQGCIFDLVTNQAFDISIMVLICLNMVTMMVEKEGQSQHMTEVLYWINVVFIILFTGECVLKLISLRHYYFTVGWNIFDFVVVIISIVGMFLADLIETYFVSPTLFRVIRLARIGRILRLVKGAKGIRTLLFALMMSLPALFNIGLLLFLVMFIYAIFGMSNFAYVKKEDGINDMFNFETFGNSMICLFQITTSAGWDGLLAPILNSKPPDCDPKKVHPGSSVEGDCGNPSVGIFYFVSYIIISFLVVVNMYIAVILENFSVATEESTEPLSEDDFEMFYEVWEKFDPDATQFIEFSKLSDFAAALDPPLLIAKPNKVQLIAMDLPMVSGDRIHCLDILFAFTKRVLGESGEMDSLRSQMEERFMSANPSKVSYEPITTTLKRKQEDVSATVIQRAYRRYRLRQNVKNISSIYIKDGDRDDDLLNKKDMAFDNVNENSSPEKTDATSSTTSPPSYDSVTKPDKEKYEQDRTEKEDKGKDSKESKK

A word on the inhibition: it is the share of the control response that was lost under treatment. For the molecule `Cc1cn(C)[n+](CC(=O)Nc2c(C)cccc2C)c1` [1′A, 2-(2-((2,6-dimethylphenyl)amino)-2-oxoethyl)-1,4-dimethyl-1H-pyrazol-2-ium bromide], the inhibition at 30 µM at NaV1.7 [1] was below 25%. In addition, the inhibition at 10 µM at NaV1.7 [2] is above 65%.

Broadly, the Papp is a coefficient for how fast a substance crosses the barrier. For `Cc1cccc(C)c1NC(=O)C[n+]1cccn1CC(C)C.[Br-]` [Compound 2′A, 2-(2-((2,6-dimethylphenyl)amino)-2-oxoethyl)-1-isobutyl-1H-pyrazol-2-ium bromide], the inhibition at 30 µM on NaV1.7 [1] was below 25%. The molecule also yielded a Papp at 4 h, 50 µM in data set [3] of at most 1.2 ×10⁻⁶ cm/s. Moreover, the inhibition at 10 µM at NaV1.7 [2] is above 65%.

Consider `CCNC(=O)Cn1ccc[n+]1CC(=O)Nc1c(C)cccc1C.[Br-]` [Compound 5′A, 2-(2-((2,6-dimethylphenyl)amino)-2-oxoethyl)-1-(2-(ethylamino)-2-oxoethyl)-1H-pyrazol-2-ium bromide], for which the inhibition at 30 µM on NaV1.7 [1] is below 25%. In data set [3], this molecule had a Papp at 4 h, 50 µM of at most 1.2 ×10⁻⁶ cm/s. On NaV1.7 [2], the inhibition at 10 µM was above 65%.

Take `Cc1cccc(C)c1NC(=O)C[n+]1cccn1-c1ccccc1` [4′A, 2-(2-((2,6-dimethylphenyl)amino)-2-oxoethyl)-1-phenyl-1H-pyrazol-2-ium Formate]: the inhibition at 30 µM on NaV1.7 [1] is below 25%. In addition, the inhibition at 10 µM on NaV1.7 [2] is above 65%.

For `Cc1cccc(C)c1NC(=O)C[n+]1cccn1C1CCCCC1.[Br-]` [Compound 3′A, 1-cyclohexyl-2-(2-((2,6-dimethylphenyl)amino)-2-oxoethyl)-1H-pyrazol-2-ium bromide], the inhibition at 30 µM on NaV1.7 [1] is below 25%. In addition, the apparent permeability (Papp) at 4 h, 50 µM in data set [3] was at most 1.2 ×10⁻⁶ cm/s. In addition, the inhibition at 10 µM on NaV1.7 [2] is above 65%.

The values are drawn from patent US10786485B1, “Charged ion channel blockers and methods for use” (Nocion Therapeutics, Inc., priority 2019, dated 2020).
